In PubChem BioAssay (NCI):
Where “and” joins values, the source holds several entries; their conditions need not be identical. Equal entries are not always repeated.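 All cell lines were grown in 96-well plates and treated with compound for 48 hours. GI50 marks 50% less growth. The concentration for full growth arrest is given as TGI.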

Experiments:
Assay in all cases: NCI tumour cell line growth inhibition, 48 h
HCT-116 colon = tested on: HCT-116 colon
SK-OV-3 ovarian = tested on: SK-OV-3 ovarian
HL-60(TB) leukemia = tested on: HL-60(TB) leukemia
HCC-2998 colon = tested on: HCC-2998 colon
OVCAR-5 ovarian = tested on: OVCAR-5 ovarian
K-562 leukemia = tested on: K-562 leukemia
SN12C renal = tested on: SN12C renal
SW-620 colon = tested on: SW-620 colon
BT-549 breast = tested on: BT-549 breast
ACHN renal = tested on: ACHN renal

SMILES | TGI (HCT-116 colon) | TGI (SK-OV-3 ovarian) [µM] | TGI (HL-60(TB) leukemia) [µM] | TGI (HCC-2998 colon) | TGI (OVCAR-5 ovarian) | TGI (K-562 leukemia) | TGI (SN12C renal) | TGI (SW-620 colon) [µM] | TGI (BT-549 breast) | TGI (ACHN renal) | GI50 (HCT-116 colon) | GI50 (HL-60(TB) leukemia) [µM] | GI50 (HCC-2998 colon) | GI50 (SN12C renal) | GI50 (ACHN renal)
CC(=O)CC(C)(C)NC(=O)[C@@]1(O)CC[C@H]2[C@@H]3CCC4=CC(=O)CC[C@@H]4[C@H]3CC[C@@]21C | > 100 µM | > 100 | > 100 | > 100 µM | > 100 µM | > 100 µM | > 100 µM | > 100 | > 100 µM | > 100 µM | – | – | – | – | –
Cc1ccc(N=C2SC(c3ccc(C)cc3)(c3ccc(C)cc3)c3ccccc32)cc1 | > 100 µM | > 100 | > 100 | > 100 µM | > 100 µM | > 100 µM | > 100 µM | > 100 | > 100 µM | > 100 µM | – | – | – | – | –
N#CC1(c2ccccc2)CCN(C2(c3ccccc3)CCCCC2)CC1 | > 100 µM | > 100 | > 100 | > 100 µM | > 100 µM | > 100 µM | > 100 µM | > 100 | > 100 µM | > 100 µM | – | – | – | – | –
CC1C2CC(C/C2=N/O)C1(C)C (stereo not drawn) | > 100 µM | > 100 | > 100 | > 100 µM | > 100 µM | > 100 µM | > 100 µM | > 100 | > 100 µM | > 100 µM | – | – | – | – | –
O=C1NC2CCCCC2N=C1/C(C(=O)c1ccccc1)=C(\O)c1ccccc1 (stereo not drawn) | > 100 µM | 84.8 | > 100 | > 100 µM | > 100 µM | > 100 µM | > 100 µM | > 100 | 55.3 µM | > 100 µM | – | – | – | – | –
CC(C)(C)c1cc(C(=O)/C=C/c2ccn[nH]2)cc(C(C)(C)C)c1O | 6.11 µM | 31.7 | 5.64 | 3.37 µM | 13.6 µM | 10.3 µM | 3.6 µM | 6.27 | 17 µM | 3.03 µM | – | – | – | – | –
COc1ccc2c(c1OC)C(=O)O[C@@H]2[C@H]1c2cc3c(cc2CCN1C)OCO3 | > 100 µM | > 100 | > 100 | > 100 µM | > 100 µM | > 100 µM | > 100 µM | > 100 | > 100 µM | > 100 µM | – | – | – | – | –
CCN1CCCC(Nc2cc(C)nc(/N=C(/N)Nc3ccc(Cl)c(Cl)c3)n2)C1 (stereo not drawn) | 2.76 µM | 5.24 | 1.33 | 1.89 µM | 8.11 µM | 0.558 µM | 6.64 µM | – | 3.29 µM | 5.56 µM | – | – | – | – | –
CCCCCn1c(=O)c2c(=O)[nH][nH]c2c2ccccc21 | > 100 µM | > 100 | > 100 | > 100 µM | > 100 µM | > 100 µM | > 100 µM | > 100 | > 100 µM | > 100 µM | – | – | – | – | –
CCC(=O)NC(OCC1(CC)COC1)(C(F)(F)F)C(F)(F)F | > 100 µM | > 100 | > 100 | > 100 µM | > 100 µM | > 100 µM | > 100 µM | – | > 100 µM | > 100 µM | – | – | – | – | –
S=C(N/N=C\c1ccccn1)N(Cc1ccccn1)Cc1ccccn1 | 16.5 µM | 17.9 | > 100 | > 43.1 µM | 63.9 µM | > 100 µM | 25.7 µM | > 51.3 | 12.9 µM | 5.13 µM | – | – | – | – | –
CC1(C)CCCCCCCCCC(C)(CCCCCCCCCCCCO)C1=O (stereo not drawn) | 31.7 µM | 33.2 | 38.3 | 13.7 µM | 34.1 µM | 54.3 µM | 31.4 µM | 32.5 | 30.4 µM | 28.4 µM | – | – | – | – | –
N=C(N)SCCCN | 30.7 µM | 73.4 | 7.75 | 20.3 µM | > 100 µM | > 66.8 µM | 69.8 µM | > 100 | > 60.9 µM | 26.5 µM | – | – | – | – | –
c1csc(-c2csc(-c3ccsc3)c2)c1 | > 100 µM | > 100 | > 100 | > 100 µM | > 100 µM | > 100 µM | > 100 µM | > 100 | > 100 µM | > 100 µM | – | – | – | – | –
N#CC12C(=O)N3C(=NC(c4ccccc4)NC3c3ccccc3)C1(C#N)C(c1ccccc1)NC1=C2CCCC1 (stereo not drawn) | > 100 µM | > 100 | > 100 | > 100 µM | > 100 µM | > 100 µM | > 100 µM | > 100 | > 100 µM | > 100 µM | – | – | – | – | –
O=C(/C=C(\O)c1ccccc1)/C(=C/C(=O)c1ccccc1)NN=C(c1ccccc1)c1ccccc1 | > 100 µM | 92.5 | 6.8 | 58.7 µM | > 100 µM | > 100 µM | > 100 µM | > 100 | > 100 µM | > 100 µM | – | – | – | – | –

SMILES | TGI (HCT-116 colon) | TGI (SK-OV-3 ovarian) [µM] | TGI (HL-60(TB) leukemia) [µM] | TGI (HCC-2998 colon) | TGI (OVCAR-5 ovarian) | TGI (K-562 leukemia) | TGI (SN12C renal) | TGI (SW-620 colon) [µM] | TGI (BT-549 breast) | TGI (ACHN renal) | GI50 (HCT-116 colon) | GI50 (HL-60(TB) leukemia) [µM] | GI50 (HCC-2998 colon) | GI50 (SN12C renal) | GI50 (ACHN renal)
COc1nc(OC)nc(-c2cccc(F)c2)n1 | 40.5 µM | 31.4 | > 100 | 28.2 µM | 28.5 µM | 53.7 µM | 31.5 µM | 40.6 | 29.7 µM | 30.7 µM | – | – | – | – | –
C[C@@H]1CC[C@@H](C)[C@](C)(CCc2ccoc2)C/C=C\C=C/1C(=O)O | > 50 µM | > 50 | > 50 | > 50 µM | > 50 µM | > 50 µM | > 50 µM | > 50 | > 50 µM | > 50 µM | – | – | – | – | –
Cc1ccc(OCC2OC(n3cnc4c(Cl)ncnc43)CC2Oc2ccc(C)cc2)cc1 (stereo not drawn) | 7.13 µM and 38.2 µM | > 81.1 | 7.17 | 12.8 µM and 37 µM | 68.5 µM and > 79.7 µM | > 23.9 µM and 61.8 µM | 15.3 µM and 36.6 µM | > 55.4 | 40 µM and 49.9 µM | 24.9 µM and 3.73 µM | 2.4 µM and 14.3 µM | 2.79 | 5.44 µM and 16.8 µM | 7.49 µM and 17.5 µM | 11.1 µM and 1.98 µM
COc1cc(OC)c2c(O)c(S(=O)(=O)c3ccc(C)cc3)c(=O)oc2c1 | > 100 µM | > 100 | > 100 | > 100 µM | > 100 µM | > 100 µM | > 100 µM | > 100 | > 100 µM | > 100 µM | – | – | – | – | –
[N-]=[N+]=NC[C@H]1OCO[C@H](CN=[N+]=[N-])[C@H]2OCCOCCOc3ccccc3OCCOCCO[C@@H]21 | > 100 µM | > 100 | > 100 | > 100 µM | – | > 100 µM | > 100 µM | > 100 | > 100 µM | – | – | – | – | – | –
CCn1c2ccc(O)c(C(=O)OC)c2c2cc3ccccc3c(O)c21 | 29.2 µM | 43.8 | 60 | 38.3 µM | 73.3 µM | > 100 µM | 41.6 µM | – | 50.7 µM | 54.1 µM | – | – | – | – | –
O=C1c2ccccc2-c2nc(-c3ccccc3)cc3c2c1nc1ccccc13 | 36.5 µM | 55.2 | 15 | 26.7 µM | 61.4 µM | > 100 µM | 32.8 µM | 36.6 | 42.9 µM | 91.5 µM | – | – | – | – | –
CC(C)(C)OC(=O)NCC(=O)NC1C/C(=N\O)c2sccc21 (stereo not drawn) | > 100 µM | > 100 | > 100 | > 100 µM | > 100 µM | > 100 µM | > 100 µM | > 100 | > 100 µM | – | – | – | – | – | –
COc1ccc(/C(=N/Nc2nc3ccccc3[nH]2)C(=O)O)cc1 | > 100 µM | > 100 | > 100 | > 100 µM | > 100 µM | > 100 µM | > 100 µM | > 100 | > 100 µM | > 100 µM | – | – | – | – | –
Cc1nn(C)c2nc3ccc(Cl)cc3c(-c3ccccc3)c12 | > 100 µM | > 100 | > 100 | > 100 µM | > 100 µM | > 100 µM | > 100 µM | > 100 | > 100 µM | > 100 µM | – | – | – | – | –
CC(NNC(=O)c1ccncc1)c1ccc(Cl)c(Cl)c1 (stereo not drawn) | > 100 µM | > 100 | > 100 | > 100 µM | > 100 µM | > 100 µM | > 100 µM | > 100 | > 100 µM | > 100 µM | – | – | – | – | –
COC1=CC(=O)c2c(O)c3c(c(O)c2C1=O)C[C@](C)(O)C[C@@H]3O | 8.94 µM | 41.6 | 7.91 | 10.7 µM | 27.8 µM | 19.4 µM | 13 µM | 14 | 22.5 µM | 16 µM | – | – | – | – | –
COP(=O)(OC)C(NC=O)P(=O)(OC)OC | > 100 µM | > 100 | > 100 | > 100 µM | – | > 100 µM | > 100 µM | > 100 | > 100 µM | > 100 µM | – | – | – | – | –
CNC(=S)N/N=C(\C)c1nc2ncccc2[nH]1 | > 100 µM | > 100 | 52.8 | > 100 µM | > 100 µM | > 100 µM | > 100 µM | > 100 | 99.5 µM | > 100 µM | – | – | – | – | –
Cc1nn(C(=O)c2ccncc2)c2c1C(c1cccc([N+](=O)[O-])c1)SC(N)=N2 (stereo not drawn) | > 10 µM | > 10 | > 10 | > 10 µM | > 10 µM | > 10 µM | > 10 µM | > 10 | > 10 µM | > 10 µM | – | – | – | – | –
O/N=C1/C2CC3CC1(c1ccccc1)CC(/C3=N/O)/C2=N\O (stereo not drawn) | > 100 µM | > 100 | > 100 | > 100 µM | > 100 µM | > 100 µM | > 100 µM | > 100 | > 100 µM | > 100 µM | – | – | – | – | –
